Consider 20 compounds from patent US11479546B2, “Antimalarial hexahydropyrimidine analogues” (UCB Biopharma SRL, priority 2018, dated 2022).

SMILES strings stand for the structures.

For the first experiment, the system named is Plasmodium falciparum 3D7. Nature of the experiment: P. falciparum 3D7 asexual blood stage assay, Assay Procedure Version 2 (SYBR green readout). The experiment is classed as cell-based. The settings on record: Plasmodium falciparum, 3D7, Erythrocyte, 72 h, Version 2 of the assay procedure (asterisk *); 72 h incubation in infected erythrocytes; 50,000 nM to 15 nM. How it is done: Asexual Blood Stage Assay
The assay used to measure the effect of test compounds on a bloodstream stage of Plasmodium falciparum 3D7 strain employs SYBR green as the readout. This is a dye that binds to double stranded deoxyribonucleic acid (DNA) with a resulting increase in fluorescence, allowing detection of P. falciparum DNA in infected erythrocytes, and thereby providing a measure of parasite growth and propagation.
P. falciparum Culture Maintenance
Erythrocytes (A+blood) were prepared for both parasite culture and assay by washing 4 times with incomplete media (15.9 g RPMI 1640 (25 mM HEPES, L-glutamine), 1 g NaHCO3, 2 g glucose, 400 μL gentacin (500 mg/mL), 2 mL hypoxanthine solution (13.6 g/L in 0.1M NaOH pH 7.3) in 1 litre of media). The cells were centrifuged at 1800 g for 5 minutes, before decanting the supernatant and re-suspending in fresh incomplete media. On the final wash, the cells were re-suspended in complete media (incomplete media with 5 g/L AlbumaxII), and centrifuged at 1800 g for 3 minutes. This cell sediment was treated as 100% haematocrit.
P. falciparum 3D7 was cultured in erythrocytes at 5% haematocrit in complete media at 37° C. (1% O2, 3% CO2, balance N2). Cultures were split on a weekly basis to achieve a 1% parasitaemia in erythrocites at 5% haematocrit in fresh media. Culture media is replaced by fresh media every other day (2 times during the week).
[formula] where A=% inhibition at bottom; B=% inhibition at top; C=EC50; D=slope; x=inhibitor concentration; and y=% inhibition. […] Assay Procedure—Version 2
On day 1, test compounds were added to assay plates using Echo dispensing technology ([…] and 20 points titration). 50 nL of each compound dilution was added to 50 μL of culture (5% haematocrit, 0.5% parasitaemia) and incubated for 72 h at 37° C. (1% O2, 3% CO2, balance N2). Final concentrations of test compounds ranged from 50,000 nM to 15 nM, in […].
On day 4, 10 μL SYBR green (Invitrogen S7563 supplied as 10,000× concentrate in DMSO) pre-diluted to 3× concentrate with Lysis buffer (20 mM Tris pH 7.9, 5% EDTA, 0.16% w/v, 1.6% TX100 v/v) was added to the cultures and incubated in the dark, overnight, at room temperature.
On day 5, fluorescent signal was measured using a BioTek plate reader (excitation 485 nm, emission 528 nm). All data were processed using IDBS ActivityBase. Raw data were converted into percent inhibition through linear regression by setting the high inhibition control (mefloquine) as 100% and the no inhibition control (DMSO) as 0%. Quality control criteria for passing plates were as follows: Z′>0.5, S:B>3, % CV(no inhibition control)<15. The formula used to calculate Z′ is:
[formula] where μ denotes the mean; σ denotes the standard deviation; p denotes the positive control; and n denotes the negative control.
All EC50 curve fitting was undertaken using the following bi-phasic two site dose response using XLfit model 300 (IDBS):
[formula] where A=100 minus the top of the upper curve 1 and the bottom of lower curve; B=Hill slope; log(C)=IC50 concentration at lower site; log(D)=IC50 concentration at upper site; x=inhibitor concentration; and y=% inhibition.
As for `CC1(C)CC(N2C(=N)N[C@](C)(c3cccc(Nc4cnc(C5CC5)cn4)c3Cl)CC2=O)CCO1` (single isomer, unassigned) [Example 151, (6S)-6-{2-Chloro-3-[(5-cyclo-propylpyrazin-2-yl)amino]-phenyl}-3-[(4S*)-2,2-dimethyl-tetrahydropyran-4-yl]-2-imino-6-methylhexahydropyrimidin-4-one], the IC50 is 707 nM. Consider `CC1(C)CC(N2C(=N)N[C@](C)(c3cccc(Nc4ccn(C5CC5)c(=O)c4)c3Cl)CC2=O)CCO1` (single isomer, unassigned) [Example 205, (6S)-6-{2-Chloro-3-[(1-cyclo-propyl-2-oxopyridin-4-yl)-amino]phenyl}-3-[(4R*)-2,2-dimethyltetrahydropyran-4-yl]-2-imino-6-methylhexahydro-pyrimidin-4-one], for which inhibition was half-maximal at 6210 nM (IC50). Same read-out and setting: the figure for `C[C@@H]1C[C@@H](N2C(=N)N[C@](C)(c3cccc(Nc4ccc(OC(F)F)nc4)c3Cl)CC2=O)CCO1` (single isomer, unassigned; peak 1) [Example 191, (6S)-6-(2-Chloro-3-{[6-(difluoromethoxy)pyridin-3-yl]-amino}phenyl)-2-imino-6-methyl-3-[(2R*,4S*)-2-methyl-tetrahydropyran-4-yl]-hexahydropyrimidin-4-one (Peak 1)] is 363 nM; for `C[C@@H]1C[C@@H](N2C(=N)N[C@](C)(c3cccc(Nc4ccc(C5CC5)nc4)c3Cl)CC2=O)CCO1` (single isomer, unassigned; peak 1) [Example 193, (6S)-6-{2-Chloro-3-[(6-cyclo-propylpyridin-3-yl)amino]-phenyl}-2-imino-6-methyl-3-[(2R*,4S*)-2-methyltetrahydro-pyran-4-yl]hexahydropyrimidin-4-one (Peak 1)] it is 148 nM; for `Cc1ccc(Nc2cccc([C@]3(C)CC(=O)N([C@H]4CCO[C@H](C)C4)C(=N)N3)c2Cl)cn1` (single isomer, unassigned; peak 1) [Example 195, (6S)-6-(2-Chloro-3-[(6-methyl-pyridin-3-yl)amino]phenyl}-2-imino-6-methyl-3-[(2R*,4S*)-2-methyltetrahydropyran-4-yl]-hexahydropyrimidin-4-one (Peak 1)] it is 244 nM. In the case of `C[C@H]1C[C@H](N2C(=N)N[C@](C)(c3cccc(Nc4ccc(OC(F)F)nc4)c3Cl)CC2=O)CCO1` (single isomer, unassigned; peak 2) [Example 192, (6S)-6-(2-Chloro-3-{[6-(difluoromethoxy)pyridin-3-yl]-amino}phenyl)-2-imino-6-methyl-3-[(2S*,4R*)-2-methyl-tetrahydropyran-4-yl]-hexahydropyrimidin-4-one (Peak 2)], 3700 nM corresponded to half-maximal inhibition (IC50). Same read-out and setting: the result for `C[C@H]1C[C@H](N2C(=N)N[C@](C)(c3cccc(Nc4ccc(C5CC5)nc4)c3Cl)CC2=O)CCO1` (single isomer, unassigned; peak 2) [Example 194, (6S)-6-{2-Chloro-3-[(6-cyclo-propylpyridin-3-yl)amino]-phenyl}-2-imino-6-methyl-3-[(2S*,4R*)-2-methyltetrahydro-pyran-4-yl]hexahydropyrimidin-4-one (Peak 2)] reads 747 nM; that for `Cc1ccc(Nc2cccc([C@]3(C)CC(=O)N([C@@H]4CCO[C@@H](C)C4)C(=N)N3)c2Cl)cn1` (single isomer, unassigned; peak 2) [Example 196, (6S)-6-{2-Chloro-3-[(6-methyl-pyridin-3-yl)amino]phenyl}-2-imino-6-methyl-3-[(2S*,4R*)-2-methyltetrahydropyran-4-yl]-hexahydropyrimidin-4-one (Peak 2)], 552 nM; that for `C[C@@H]1C[C@H](N2C(=N)N[C@](C)(c3cccc(Nc4cc(F)c5ccnn5c4)c3Cl)CC2=O)CCO1` (stereo in doubt) [Example 137, (6S)-6-{2-Chloro-3-[(4-fluoro-pyrazolo[1,5-a]pyridin-6-yl)-amino]phenyl}-2-imino-6-methyl-3-[(cis)-2-methyl-tetrahydropyran-4-yl]-hexahydropyrimidin-4-one], 158 nM. `C[C@@H]1C[C@H](N2C(=N)N[C@](C)(c3cccc(Nc4ccc(OC(F)F)nc4)c3Cl)CC2=O)CCO1` (stereo in doubt) [Example 138, (6S)-6-(2-Chloro-3-{[6-(difluoromethoxy)pyridin-3-yl]-amino}phenyl)-2-imino-6-methyl-3-[(cis)-2-methyl-tetrahydropyran-4-yl]-hexahydropyrimidin-4-one] yielded an IC50 of 19 nM. Compound `C[C@@]1(c2cccc(Nc3ccc(OC(F)F)nc3)c2Cl)CC(=O)N(C2CCOCC2)C(=N)N1` [Example 42, (6S)-6-(2-Chloro-3-{[6-(difluoromethoxy)pyridin-3-yl]-amino}phenyl)-2-imino-6-methyl-3-(tetrahydropyran-4-yl)hexahydropyrimidin-4-one] came in with an IC50 of 269 nM. In turn, `C[C@@]1(c2cccc(Nc3ccccc3S(C)(=O)=O)c2Cl)CC(=O)N(C2CCOCC2)C(=N)N1` [Example 43, (6S)-6-[2-Chloro-3-(2-methyl-sulfonylanilino)phenyl]-2-imino-6-methyl-3-(tetrahydro-pyran-4-yl)hexahydropyrimidin-4-one] displayed an IC50 of 63 nM. Compound `Cc1cnc(Nc2cccc([C@]3(C)CC(=O)N(C4CCOCC4)C(=N)N3)c2Cl)cn1` [Example 44, (6S)-6-{2-Chloro-3-[(5-methyl-pyrazin-2-yl)amino]phenyl}-2-imino-6-methyl-3-(tetrahydro-pyran-4-yl)hexahydropyrimidin-4-one] returned an IC50 of 815 nM. As for `C[C@@]1(c2cccc(Nc3ccc(OC(F)(F)F)nc3)c2Cl)CC(=O)N(C2CCOCC2)C(=N)N1` [Example 45, (6S)-6-(2-Chloro-3-{[6-(trifluoromethoxy)pyridin-3-yl]-amino}phenyl)-2-imino-6-methyl-3-(tetrahydropyran-4-yl)hexahydropyrimidin-4-one], the IC50 was 305 nM. The compound `C[C@@]1(c2cccc(Nc3cncc4ccccc34)c2Cl)CC(=O)N(C2CCOCC2)C(=N)N1` [Example 46, (6S)-6-[2-Chloro-3-(isoquinolin-4-ylamino)phenyl]-2-imino-6-methyl-3-(tetrahydropyran-4-yl)hexahydropyrimidin-4-one] came in with an IC50 of 425 nM.

Take `COc1cc(C#N)ccc1Nc1cccc([C@]2(C)CC(=O)N(C3CCOCC3)C(=N)N2)c1Cl` [Example 47, 4-{2-Chloro-3-[(4S)-2-imino-4-methyl-6-oxo-1-(tetrahydro-pyran-4-yl)hexahydropyrimidin-4-yl]anilino}-3-methoxy-benzonitrile]: the IC50 came to 171 nM. The same measure, in the same setting: the result for `C[C@@]1(c2cccc(Nc3cnccc3C#N)c2Cl)CC(=O)N(C2CCOCC2)C(=N)N1` [Example 48, 3-{2-Chloro-3-[(4S)-2-imino-4-methyl-6-oxo-1-(tetrahydro-pyran-4-yl)hexahydropyrimidin-4-yl]anilino}pyridine-4-carbo-nitrile] reads 386 nM; that for `COc1ncc(Nc2cccc([C@]3(C)CC(=O)N(C4CCOCC4)C(=N)N3)c2Cl)cc1F` [Example 49, (6S)-6-{2-Chloro-3-[(5-fluoro-6-methoxypyridin-3-yl)amino]-phenyl}-2-imino-6-methyl-3-(tetrahydropyran-4-yl)-hexahydropyrimidin-4-one], 468 nM; that for `COc1ncccc1Nc1cccc([C@]2(C)CC(=O)N(C3CCOCC3)C(=N)N2)c1Cl` [Example 50, (6S)-6-{2-Chloro-3-[(2-methoxypyridin-3-yl)amino]-phenyl}-2-imino-6-methyl-3-(tetrahydropyran-4-yl)-hexahydropyrimidin-4-one], 373 nM.

The experiment is the same for the next values; noted with them: Version 2 of the assay procedure (asterisk *); 72 h incubation in infected erythrocytes; 50,000 nM to 15 nM.
Turning to `CC1(C)CC(N2C(=N)N[C@](C)(c3cccc(Nc4ccc(C5CC5)nc4)c3Cl)CC2=O)CCO1` (single isomer, unassigned) [Example 158, (6S)-6-{2-Chloro-3-[(6-cyclo-propylpyridin-3-yl)amino]-phenyl}-3-[(4S*)-2,2-dimethyl-tetrahydropyran-4-yl]-2-imino-6-methylhexahydropyrimidin-4-one], half-maximal inhibition (IC50) required 1730 nM.

For orientation: IC50 means the point on the concentration scale where inhibition reaches its midpoint. High values mean weaker potency in that assay, low ones greater potency in that assay.
